Experimental data published in PubChem BioAssay (NCI).
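All cell lines were grown in 96-well plates and treated with compound for 48 hours. The concentration for full growth arrest is given as TGI.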 Where a SMILES comes first, the peptide text is derived from it. [ ]: non-standard residue; d: D form. The star is where a group is joined. ξ: configuration not given here. NMeY = CN[C@@H](Cc1ccc(O)cc1)C(=O)O; Cbz = O=C(OCc1ccccc1)*; ξA = CC(N)C(=O)O

Experiments:
Experiment in all cases: NCI-60 cell line screen, 48 h
OVCAR-5 ovarian = tested on: OVCAR-5 ovarian
TK-10 renal = tested on: TK-10 renal
UO-31 renal = tested on: UO-31 renal
RXF 393 renal = tested on: RXF 393 renal
HOP-62 NSCLC = tested on: HOP-62 NSCLC
A549 NSCLC = tested on: A549 NSCLC
A498 renal = tested on: A498 renal
KM12 colon = tested on: KM12 colon
IGROV1 ovarian = tested on: IGROV1 ovarian
MDA-N = tested on: MDA-N

CCOC(=O)C1C/C(C)=C(/C)SCCCS1 (stereo not drawn)
TGI (OVCAR-5 ovarian): > 100 µM
TGI (TK-10 renal): > 100 µM
TGI (UO-31 renal): > 100 µM
TGI (RXF 393 renal): > 100 µM
TGI (HOP-62 NSCLC): > 100 µM
TGI (A549 NSCLC): > 100 µM
TGI (A498 renal): > 100 µM
TGI (KM12 colon): > 100 µM
TGI (IGROV1 ovarian): > 100 µM
TGI (MDA-N): > 100 µM

CCCCc1ccc2[n+](c1)C(C(=O)OCC)=PC2 (stereo not drawn)
TGI (OVCAR-5 ovarian): > 100 µM
TGI (TK-10 renal): > 100 µM
TGI (RXF 393 renal): > 100 µM
TGI (HOP-62 NSCLC): > 100 µM
TGI (A549 NSCLC): > 100 µM
TGI (A498 renal): > 100 µM
TGI (KM12 colon): > 100 µM
TGI (IGROV1 ovarian): > 100 µM
TGI (MDA-N): > 100 µM

CC(=O)N[C@@H](Cc1ccc(O)cn1)C(=O)NCc1ccc2c(c1)OCO2
TGI (OVCAR-5 ovarian): > 100 µM
TGI (TK-10 renal): > 100 µM
TGI (UO-31 renal): > 100 µM
TGI (RXF 393 renal): > 100 µM
TGI (HOP-62 NSCLC): > 100 µM
TGI (A549 NSCLC): > 100 µM
TGI (A498 renal): > 100 µM
TGI (KM12 colon): > 100 µM
TGI (IGROV1 ovarian): > 100 µM
TGI (MDA-N): > 100 µM

c1ccc2c3c(ccc2c1)CSCc1ccc2ccccc2c1-3
TGI (OVCAR-5 ovarian): > 100 µM
TGI (TK-10 renal): > 100 µM
TGI (UO-31 renal): > 100 µM
TGI (RXF 393 renal): > 100 µM
TGI (HOP-62 NSCLC): > 100 µM
TGI (A549 NSCLC): > 100 µM
TGI (A498 renal): > 100 µM
TGI (KM12 colon): > 100 µM
TGI (IGROV1 ovarian): > 100 µM
TGI (MDA-N): > 100 µM

O=c1c(Cc2ccc(Cl)cc2)nnc2sc(-c3ccc([N+](=O)[O-])cc3)nn12
TGI (OVCAR-5 ovarian): 88.1 µM
TGI (TK-10 renal): 68.4 µM
TGI (UO-31 renal): > 100 µM
TGI (RXF 393 renal): 74.1 µM
TGI (HOP-62 NSCLC): > 100 µM
TGI (A549 NSCLC): > 100 µM
TGI (A498 renal): 63.6 µM
TGI (KM12 colon): > 100 µM
TGI (IGROV1 ovarian): > 100 µM
TGI (MDA-N): > 100 µM

COc1ccccc1C(=O)c1c(N2CCCCC2)c(=O)c1=O
TGI (OVCAR-5 ovarian): > 100 µM
TGI (TK-10 renal): > 100 µM
TGI (UO-31 renal): > 100 µM
TGI (RXF 393 renal): > 100 µM
TGI (HOP-62 NSCLC): > 100 µM
TGI (A549 NSCLC): > 100 µM
TGI (A498 renal): > 100 µM
TGI (KM12 colon): > 100 µM
TGI (IGROV1 ovarian): > 100 µM
TGI (MDA-N): > 100 µM

COc1ccc(C[C@@H](C(=O)NCC(N)=O)N(C)C(=O)[C@@H]2CCCN2C(=O)[C@H](CC(C)C)NC(=O)C(C)NC(=O)OCc2ccccc2)cc1 (stereo partly drawn) (Cbz-[ξA]LP[NMeY](Me)G-NH2)
TGI (OVCAR-5 ovarian): > 100 µM
TGI (TK-10 renal): > 100 µM
TGI (UO-31 renal): > 100 µM
TGI (RXF 393 renal): > 100 µM
TGI (HOP-62 NSCLC): > 100 µM
TGI (A549 NSCLC): > 100 µM
TGI (A498 renal): > 100 µM
TGI (KM12 colon): > 100 µM
TGI (IGROV1 ovarian): > 100 µM
TGI (MDA-N): > 100 µM

CCCCCCCCCCCCC(=O)NCC(=O)NC(Cc1ccccc1)C(=O)Oc1ccc([N+](=O)[O-])cc1 (stereo not drawn)
TGI (OVCAR-5 ovarian): > 100 µM
TGI (TK-10 renal): > 100 µM
TGI (UO-31 renal): > 100 µM
TGI (RXF 393 renal): > 100 µM
TGI (HOP-62 NSCLC): > 100 µM
TGI (A549 NSCLC): > 100 µM
TGI (A498 renal): > 100 µM
TGI (KM12 colon): > 100 µM
TGI (IGROV1 ovarian): > 100 µM
TGI (MDA-N): > 100 µM

CCOC(=O)c1c2c(n(C)c1-c1ccccc1)C(=O)C(C)=CC2=O
TGI (OVCAR-5 ovarian): 19.6 µM
TGI (TK-10 renal): 22.1 µM
TGI (UO-31 renal): 26.6 µM
TGI (RXF 393 renal): 23.6 µM
TGI (HOP-62 NSCLC): 33.6 µM
TGI (A549 NSCLC): 32.9 µM
TGI (A498 renal): 34.8 µM
TGI (KM12 colon): 22.5 µM
TGI (IGROV1 ovarian): 17.6 µM
TGI (MDA-N): 4.08 µM

Cc1ccc(-c2cc(-c3ccc(Cl)cc3)nc(/N=C3\C(=O)N(CN4CCCCC4)c4ccc(Cl)cc43)n2)cc1
TGI (OVCAR-5 ovarian): > 100 µM
TGI (TK-10 renal): 71.1 µM
TGI (RXF 393 renal): 33.2 µM
TGI (HOP-62 NSCLC): 98.2 µM
TGI (A549 NSCLC): 57.2 µM
TGI (A498 renal): 42.3 µM
TGI (KM12 colon): 35.4 µM
TGI (IGROV1 ovarian): 34.2 µM
TGI (MDA-N): 46.2 µM
